This passage reports uptake rate results from article PMC8948829, “The Escherichia coli Amino Acid Uptake Protein CycA: Regulation of Its Synthesis and Practical Application in L-Isoleucine Production” (Microorganisms, 2022).

This assay addresses T1, CycA (Escherichia coli, UniProt P0AAE0).
T1 construct: full-length native 470 aa inner-membrane permease, chromosomal cycA overexpressed from PL promoter (strain M1, MG1655 cat-PL-cycA), whole cells
T1 sequence (P0AAE0 1-470): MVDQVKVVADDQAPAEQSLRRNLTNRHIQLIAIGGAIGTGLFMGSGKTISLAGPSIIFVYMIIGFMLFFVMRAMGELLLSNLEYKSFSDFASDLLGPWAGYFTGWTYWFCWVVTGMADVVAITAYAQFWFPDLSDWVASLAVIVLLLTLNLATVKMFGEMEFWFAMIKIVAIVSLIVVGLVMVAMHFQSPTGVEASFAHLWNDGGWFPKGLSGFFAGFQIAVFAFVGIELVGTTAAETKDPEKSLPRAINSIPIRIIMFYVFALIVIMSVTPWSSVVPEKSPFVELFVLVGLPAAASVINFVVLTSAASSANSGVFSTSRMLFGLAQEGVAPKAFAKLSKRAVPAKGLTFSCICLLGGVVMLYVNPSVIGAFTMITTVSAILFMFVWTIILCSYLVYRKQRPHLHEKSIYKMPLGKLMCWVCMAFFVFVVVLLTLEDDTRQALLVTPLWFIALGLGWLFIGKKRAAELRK
As to the kind of experiment: amino acid uptake (extracellular depletion), cycA-overexpressing versus wild-type cells. Format: cell-based. The note with it: 50 mM, N-free M9 medium, 37 °C, 6 h; other native importers intact.

`C[C@H](N)C(=O)O` [Ala]: the uptake rate entry is “the uptake rate was higher in the case of the M1 strain, especially for Ala and AABA”.

With `CC[C@H](N)C(=O)O` [AABA], the uptake rate result is “the uptake rate was higher in the case of the M1 strain, especially for Ala and AABA”.
